Results on one compound are retold here after the NIST ThermoML archive (doi:10.1016/j.tca.2018.03.014).

Numbers after ± are expanded uncertainties.

For data set [1] the following is noted: Crystal; DTA.
A short description of data set [2]: Molar enthalpy of transition or fusion. To be noted: Crystal 2; DSC.

As to `CCCCCCCCCCCCCCCCCCO` [1-octadecanol], in data set [1], the Normal melting temperature worked out at 58.10 ± 4 °C. The “Molar enthalpy of transition or fusion” value in data set [2] is 16 ± 0.335 kcal/mol.
